Measurements as given in patent publication US9505769B2 (ASCENEURON SA, priority 2013, dated 2016).
Counter-ions that a name gives are not always drawn.

Target: T1, human muscarinic acetylcholine M1 receptor (Homo sapiens, UniProt P11229)
T1 construct: expressed in transfected cells; host or cells: CHO-K1
T1 sequence (P11229 1-460): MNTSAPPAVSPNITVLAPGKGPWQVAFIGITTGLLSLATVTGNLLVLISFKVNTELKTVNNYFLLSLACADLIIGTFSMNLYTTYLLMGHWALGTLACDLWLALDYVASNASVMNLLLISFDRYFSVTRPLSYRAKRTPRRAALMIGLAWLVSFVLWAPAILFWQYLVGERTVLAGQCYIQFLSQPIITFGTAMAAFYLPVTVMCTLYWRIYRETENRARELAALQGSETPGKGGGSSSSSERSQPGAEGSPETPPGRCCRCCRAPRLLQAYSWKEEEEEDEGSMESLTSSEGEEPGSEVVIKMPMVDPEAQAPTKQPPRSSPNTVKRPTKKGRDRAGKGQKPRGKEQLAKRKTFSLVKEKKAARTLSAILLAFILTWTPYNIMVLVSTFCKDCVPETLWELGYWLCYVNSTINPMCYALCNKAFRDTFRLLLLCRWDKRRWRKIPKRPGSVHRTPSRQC
Test: M1 PAM Assay (IP-One HTRF, IP1 accumulation in M1-CHO cells)
Assay type: cell-based
Details: not given
Description: Then diluted compounds (0.6% DMSO final concentration) are added together with EC20 of acetylcholine and incubated with the cells for 30 min at 37° C., 5% CO2.
CHO-K1 cells stably transfected with human muscarinic acetylcholine M1 receptor are cultured in Ham's F12 medium containing 10% heat inactivated fetal calf serum, 2 mM L-glutamine and Penicillin-Streptomycin grown in a humidified atmosphere at 5% CO2/95% air at 37° C.

`Cc1nc2c3c(nn2c(C)c1Cl)CN(C(=O)c1ccc(F)cc1OC1CC2CC(F)C(C1)N2C)C3` (racemic) [Example 38, (3-chloro-2,4-dimethyl-7H-pyrrolo[3′,4′:3,4]pyrazolo[1,5-a]pyrimidin-8(9H)-yl)(4-fluoro-2-(((3-endo)-(6-endo)-6-fluoro-8-methyl-8-azabicyclo[3.2.1]octan-3-yl)oxy)phenyl)methanone] and `Cc1nc2c3c(nn2c(C)c1Cl)CN(C(=O)c1ccc(F)cc1OC1CC2C[C@H](O)C(C1)N2C)C3` (mixture of isomers) [Example 39, (3-chloro-2,4-dimethyl-7H-pyrrolo[3′,4′:3,4]pyrazolo[1,5-a]pyrimidin-8(9H)-yl)(4-fluoro-2-(((3-endo)-(6-exo)-6-hydroxy-8-methyl-8-azabicyclo[3.2.1]octan-3-yl)oxy)phenyl)methanone] cannot be ordered by EC50: less than 200 nM for the first, less than 200 nM for the second.

Compared with `O=C(c1ccc(F)cc1O[C@H]1C[C@H]2CC[C@@H](C1)N2CC1CC1)N1Cc2nn3cc(Cl)cnc3c2C1` [Example 59, (3-chloro-7H-pyrrolo[3′,4′:3,4]pyrazolo[1,5-a]pyrimidin-8(9H)-yl)(2-{[(3-endo)-8-(cyclopropylmethyl)-8-azabicyclo[3.2.1]oct-3-yl]oxy}-4-fluorophenyl)methanone], `N#CCN1[C@@H]2CC[C@H]1C[C@@H](Oc1cc(F)ccc1C(=O)N1Cc3nn4cc(Cl)cnc4c3C1)C2` [Example 66, [(3endo)-3-{2[(3-chloro-7H-pyrrolo[3′,4′:3,4]pyrazolo[1,5-a]pyrimidin-8(9H)-yl)carbonyl]-5-fluorophenoxy}-8-azabicyclo[3.2.1]oct-8-yl]acetonitrile] is higher in EC50: less than 200 nM for the first, 200 to 1000 nM for the second.

Same assay, conditions: CHO-K1 cells stably transfected with human M1 receptor; compounds added with EC20 of acetylcholine (25 nM), 30 min; intracellular IP1 by IP-One HTRF; read-out: M1 PAM EC50

`COc1cncc(CCOc2cc(F)ccc2C(=O)N2Cc3nn4c(C)c(Cl)c(C)nc4c3C2)c1` [Example 72] and `Cc1nc2c3c(nn2c(C)c1Cl)CN(C(=O)c1ccc(F)cc1OCCn1ccnc1C)C3` [Example 40, (3-chloro-2,4-dimethyl-7H-pyrrolo[3′,4′:3,4]pyrazolo[1,5-a]pyrimidin-8(9H)-yl)(4-fluoro-2-(2-(2-methyl-1H-imidazol-1-yl)ethoxy)phenyl)methanone] fall in the same range of EC50: 1000 to 3000 nM for the first, 1000 to 3000 nM for the second.

First: Cc1nc2c3c(nn2c(C)c1Cl)CN(C(=O)c1ccc(F)cc1OCCn1cncn1)C3 [Example 20]
Second: Cc1nc2c3c(nn2c(C)c1Cl)CN(C(=O)c1ccc(F)cc1OCCN1CCC[C@H]1C)C3 (single isomer, unassigned) [Example 44]
The EC50 of the first is lower: 200 to 1000 nM for the first, 1000 to 3000 nM for the second.

`CN1CCC(Oc2cc(F)ccc2C(=O)N2Cc3nn4cc(Cl)cnc4c3C2)CC1` [Example 12, (3-chloro-7H-pyrrolo[3′,4′:3,4]pyrazolo[1,5-a]pyrimidin-8(9H)-yl)(4-fluoro-2-((1-methylpiperidin-4-yl)oxy)phenyl)methanone] and `O=C(c1ccc(F)cc1OC1CCN(CCO)CC1)N1Cc2nn3cc(Cl)cnc3c2C1` [Example 35, (3-chloro-7H-pyrrolo[3′,4′:3,4]pyrazolo[1,5-a]pyrimidin-8(9H)-yl)(4-fluoro-2-((1-(2-hydroxyethyl)piperidin-4-yl)oxy)phenyl)methanone] fall in the same range of EC50: 200 to 1000 nM for the first, 200 to 1000 nM for the second.

First: Cc1nc2c3c(nn2c(C)c1Cl)CN(C(=O)c1ccc(F)cc1O[C@H]1COC[C@@H]1O)C3 (racemic) [Example 26, (anti)-(3-chloro-2,4-dimethyl-7H-pyrrolo[3′,4′:3,4]pyrazolo[1,5-a]pyrimidin-8(9H)-yl)(4-fluoro-2-((4-hydroxytetrahydrofuran-3-yl)oxy)phenyl)methanone]
Second: Cc1nc2c3c(nn2c(C)c1Cl)CN(C(=O)c1ccc(F)cc1O[C@H]1CC[C@H](O)CC1)C3 (single isomer, unassigned) [Example 41, (anti)-(6-Chloro-5,7-dimethyl-1H,3H-2,4,7a8-tetraaza-cyclopenta[a]inden-2-yl)-[4-fluoro-2-(4-hydroxy-cyclohexyloxy)-phenyl]-methanone]
The EC50 of the first is higher: 1000 to 3000 nM for the first, less than 200 nM for the second. The second is the more potent here.

`O=C(c1ccc(F)cc1OC1CCNCC1)N1Cc2nn3cc(Cl)cnc3c2C1` [Example 33, (3-chloro-7H-pyrrolo[3′,4′:3,4]pyrazolo[1,5-a]pyrimidin-8(9H)-yl)(4-fluoro-2-(piperidin-4-yloxy)phenyl)methanone hydrochloride] was tested, and the EC50 was 200 to 1000 nM.
